# Non-standard residues stand in square brackets, D forms with d. No end group written: not given here. Ahx = NCCCCCC(=O)O
# Columns and labels:
# [1] = target: aggregated human αSyn (Homo sapiens, UniProt P37840); assay: Aggregated human αSyn-neutralizing effect of antibody induced in mice: phosphorylation of human αSyn in SH-SY5Y cells; assay type: cell-based; set-up: purchased Stress Marq (StressMarq Biosciences Inc.); details: antibody (100 μg/mL) induced in C57BL/6 mice by the vaccine; FIG. 1B, isotype control = 100
# Procedure: The aggregated human αSyn-neutralizing effect of the antibody induced in the mice by the AJ-human αSyn peptide conjugate (AJ-p54) produced in Example 1 was evaluated. Physiological saline or the AJ-human αSyn peptide conjugate (250 μg/mouse) was intramuscularly administered to C57BL/6 mice (males, 6 weeks old, CLEA Japan, Inc.) four times at a 2-week interval using CFA (DIFCO) as an adjuvant. Furthermore, KLH-DMPVDPDN (25 μg/mouse) was administered using Alum (InvivoGen, 50 μg/mouse) as an adjuvant. Two weeks after the fourth administration, serum was recovered. After recovering the antibodies comprised in the serum by Protein G HP SpinTrap (Cytiva), the human αSyn- and aggregated human αSyn-neutralizing effect was evaluated by a method described below.
# As the human αSyn- and aggregated human αSyn-neutralizing effect, the influence on phosphorylation of human αSyn in SH-SY5Y cells (ATCC) was evaluated. The SH-SY5Y cells were seeded in a 96-well plate at 2×10^4 cells/well and cultured under the conditions of 37° C. and 5% CO2. […] After fixing the cells with a 4% paraformaldehyde/phosphate buffer solution (FUJIFILM Wako Pure Chemical Corporation), phosphorylated human αSyn was stained with a fluorescence-labeled anti-phosphorylated αSyn antibody (Cell Signaling). The amount of phosphorylated human αSyn was evaluated by image analysis using ArrayScan (Thermo Fisher Scientific Inc.). […]
# [2] = test system: aggregated human αSyn; assay: Antibody-inducing ability in mice: ELISA antibody titer of immune serum with respect to aggregated human αSyn; assay type: in vivo, mouse; details: for Antibody titer with respect to aggregated human αSyn (N = 4 − 6, mean ± standard deviation): Example 2, serum 2 weeks after second administration; for Antibody titer with respect to aggregated human αSyn, relative to control: mice
# Procedure: (§1) Using the various AJ peptide-human αSyn peptide conjugates produced in Example 1, an antibody-inducing ability with respect to human αSyn in mice was evaluated. The various AJ-human αSyn peptide conjugates (250 μg/mouse) or KLH-DMPVDPDN (25 μg/mouse) in physiological saline were intramuscularly administered to balb/c mice (females, 6 weeks old, CLEA Japan, Inc.) twice at a 2-week interval for immunization using aluminum hydroxide (Alum) (InvivoGen, 50 μg/mouse) as an adjuvant. As a negative control, physiological saline (100 μL/mouse) comprising the same amount of aluminum hydroxide was administered twice. Two weeks after the second administration, serum was recovered to evaluate the antibody titer with respect to human αSyn by ELISA.
# (§2) ELISA was performed by the following method. 96-well plates were coated with human αSyn (Sigma) at 0.2 μg/well. After washing with PBST (Phosphate Buffered Saline comprising 0.05% Tween) once, blocking was performed with 3% skim milk (FUJIFILM Wako Pure Chemical Corporation). After washing with PBST three times, diluted serum was added to cause a reaction at room temperature for 1 hour. Furthermore, after washing with PBST three times, Goat anti-mouse IgG-HRP (abcam) was added to cause a reaction at room temperature for 1 hour. After washing with PBST three times, SureBlue TMB Microwell Peroxidase Substrate (KPL) was added to cause a reaction at room temperature for 10 minutes while light shielding. An equal volume of a TMB Stop Solution (KPL) was added to stop the reaction, and the absorbance at 450 nm was measured. ELISA with respect to aggregated human αSyn was performed by coating with the aggregated human αSyn (Stress Marq) at 15 ng/well instead of human αSyn in the above-mentioned method.
# The antibody-inducing ability of the AJ-human αSyn peptide conjugates (AJ-p54, AJ-p54-KLH, and AJ-DMPVDPDN) produced in Example 1 with respect to human αSyn and aggregated human αSyn in mice was evaluated. Physiological saline or the AJ-human αSyn peptide conjugate (250 μg/mouse) was intramuscularly administered to balb/c mice (females, 6 weeks old, CLEA Japan, Inc.) twice at a 2-week interval using Alum (InvivoGen, 50 μg/mouse) as an adjuvant. Furthermore, KLH-DMPVDPDN (25 μg/mouse) was administered using Alum (InvivoGen, 50 μg/mouse) as an adjuvant. Two weeks after the second administration, serum was recovered to evaluate the antibody titer by ELISA. ELISA was performed by the method described in Example 2.
# The antibody-inducing ability of the produced various human αSyn peptide conjugates with respect to human αSyn and aggregated human αSyn in the mice was evaluated by the method described in Example 2 using the antibody titers with respect to human αSyn and aggregated human αSyn of the mouse immune serum. […] In Table 6, the antibody titer of AJ-p242, AJ-p244, AJ-p347, or AJ-p361 is shown with the antibody titer of AJ-p150 as a control being 1 (logarithm). In addition, the antibody titers of AJ-p229, AJ-p237, and AJ-p298 are shown with the antibody titer of AJ-p54 as a control being 1 (logarithm).
# The antibody-inducing ability of the AJ-human αSyn peptide conjugates with a modified linker with respect to human αSyn and aggregated human αSyn in the mice was evaluated using the antibody titers with respect to human αSyn and aggregated human αSyn of the mouse immune serum. […] In Table 8, the antibody titers of the AJ-human αSyn peptide conjugates with various modified linkers comprising p54 are shown with the antibody titer of AJ-p54 as a control being 1 (logarithm). In addition, the antibody titers of the AJ-human αSyn peptide conjugates with various modified linkers comprising p150 are shown with the antibody titer of AJ-p150 as a control being 1 (logarithm).
# [3] = test system: human αSyn; assay: Antibody-inducing ability in mice: ELISA antibody titer of immune serum with respect to human αSyn; assay type: in vivo, mouse; set-up: key to Antibody titer with respect to human αSyn, relative to control: log titer relative to control conjugate (control = 1); details: for Antibody titer with respect to human αSyn (N = 4 − 6, mean ± standard deviation): Example 2, serum 2 weeks after second administration
# Procedure: as §1
# as §2, with “above-mentioned method. […]” for “above-mentioned method.”
# The antibody-inducing ability of the produced various human αSyn peptide conjugates with respect to human αSyn and aggregated human αSyn in the mice was evaluated by the method described in Example 2 using the antibody titers with respect to human αSyn and aggregated human αSyn of the mouse immune serum. […] In Table 6, the antibody titer of AJ-p242, AJ-p244, AJ-p347, or AJ-p361 is shown with the antibody titer of AJ-p150 as a control being 1 (logarithm). In addition, the antibody titers of AJ-p229, AJ-p237, and AJ-p298 are shown with the antibody titer of AJ-p54 as a control being 1 (logarithm). […]
# [4] = test system: aggregated human αSyn; assay: Antibody-inducing ability in cynomolgus monkeys: ELISA antibody titer with respect to aggregated human αSyn; assay type: in vivo; details: i.m. three times at 2-week interval, Alum; AJ conjugates 2,000 μg/monkey, KLH-DMPVDPDN 75 μg/monkey; FIG. 4B
# Procedure: The antibody-inducing ability of the AJ-human αSyn peptide conjugate with respect to human αSyn and aggregated human αSyn in cynomolgus monkeys was evaluated. The AJ-human αSyn peptide conjugates (AJ-p54, AJ-p150, AJ-p283, AJ-p142, and AJ-p273) (2,000 μg/monkey) and KLH-DMPVDPDN (75 μg/monkey) were intramuscularly administered to cynomolgus monkeys (males, 3 to 7 years old, SNBL, Ltd.) three times at a 2-week interval using Alum (InvivoGen, 200 μg/monkey) as an adjuvant. Blood was collected before administration and 4, 6, 8, and 10 weeks after the first administration to recover the serum. ELISA was performed by the following method.
# 96-well plates were coated with human αSyn (Sigma-Aldrich) or aggregated human αSyn (StressMarq Biosciences Inc.) at 0.2 μg/well or 15 ng/well. After washing with PBST once, blocking was performed with 3% skim milk (FUJIFILM Wako Pure Chemical Corporation). After washing with PBST three times, diluted serum was added to cause a reaction at room temperature for 1 hour. Furthermore, after washing with PBST three times, Goat anti-Monkey IgG-HRP (Bio-Rad Laboratories, Inc.) was added to cause a reaction at room temperature for 1 hour. […] An equal volume of a TMB Stop Solution (KPL) was added to stop the reaction, and the absorbance at 450 nm was measured.
# [5] = balb/c mice, i.m. twice at 2-week interval, Alum, AJ conjugates 250 μg/mouse, KLH-DMPVDPDN 25 μg/mouse
# [6] = Example 4, balb/c mice, i.m. twice at 2-week interval, Alum, AJ conjugates 250 μg/mouse, KLH-DMPVDPDN 25 μg/mouse
Phosphorylation of human αSyn in SH-SY5Y cells to which aggregated human αSyn was added [1],Sequence,"Antibody titer with respect to aggregated human αSyn (N = 4 − 6, mean ± standard deviation) [2, 5]","Induction of the antibody to aggregated human αSyn (in words) ([2]; Example 4, balb/c mice)","Antibody titer with respect to aggregated human αSyn (mean ± standard deviation) [2, 6]","Antibody titer with respect to aggregated human αSyn, relative to control ([2]; Example 9, N = 4, titer of AJ-p150 or AJ-p54 as control being 1 (logarithm))","Antibody titer with respect to aggregated human αSyn, relative to control ([2]; Example 10, modified linker, titer of AJ-p54 or AJ-p150 as control being 1 (logarithm))","Antibody titer with respect to human αSyn (N = 4 − 6, mean ± standard deviation) [3, 5]","Induction of the antibody to human αSyn (in words) ([3]; Example 3, mice)","Antibody titer (N = 4 − 6, mean ± standard deviation) with respect to human αSyn ([3]; Example 3, mice, same manner as Example 2)","Induction of the antibody to human αSyn (in words) ([3]; Example 4, balb/c mice)","Antibody titer with respect to human αSyn (mean ± standard deviation) [3, 6]","Antibody titer with respect to human αSyn, relative to control ([3]; Example 9, mice, N = 4, titer of AJ-p150 or AJ-p54 as control being 1 (logarithm))","Antibody titer with respect to human αSyn, relative to control ([3]; Example 10, modified linker, mice, titer of AJ-p54 or AJ-p150 as control being 1 (logarithm))",Induction of the antibody to aggregated human αSyn in cynomolgus monkeys [4]
inhibited,"ELKLIFLHRLKRLRKRLKRKXKKDQLGKNE (ELKLIFLHRLKRLRKRLKRK[Ahx]KKDQLGKNE) [AJ-p54, AJ peptide linked to p54 via ε-Acp (X)]",768 ± 862,induced,768 ± 296,1,1,4096 ± 2896,induced to the same extent,1434 ± 1510,induced,1434 ± 1510,1,1,
,ELKLIFLHRLKRLRKRLKRKXKKTQLGKND (ELKLIFLHRLKRLRKRLKRK[Ahx]KKTQLGKND) [AJ-p273],704 ± 896,,,,,3328 ± 3278,,,,,,,not induced

# From patent US20240270801A1, “EPITOPE PEPTIDE OF HUMAN ALPHA-SYNUCLEIN AND PHARMACEUTICAL COMPOSITION INCLUDING SAID PEPTIDE” (Sumitomo Pharma Co., Ltd., priority 2021, published 2024)
